The values below come from PubChem BioAssay AID276 (DTP/NCI, 2004).

This test relates to B6C3F1 mice, Lewis lung carcinoma iv, survival T/C. The test can be described thus: NCI In Vivo Anticancer Drug Screen. Data for tumor model Lewis Lung Carcinoma (intravenous) in B6C3F1 mice. The following applies: endpoint: median survival time, higher = longer survival. The gist of the method:
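Read-out is survival, expressed as the treated-group measurement over the vehicle control-group measurement. Animals bore a transplantable tumor and were given compound.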

Setting [1] is: dose: 25.0 mg/kg/injection, schedule: Q01DX009 (ip), vehicle: saline with Tween-80.
Where [2] appears, read: dose: 50.0 mg/kg/injection, schedule: Q01DX009 (ip), vehicle: saline with Tween-80.
Setting [3] is: dose: 100.0 mg/kg/injection, schedule: Q01DX009 (ip), vehicle: saline with Tween-80.
[4] abbreviates: dose: 200.0 mg/kg/injection, schedule: Q01DX009 (ip), vehicle: saline with Tween-80.
Where [5] appears, read: dose: 400.0 mg/kg/injection, schedule: Q01DX009 (ip), vehicle: saline with Tween-80.
[6] abbreviates: dose: 6.25 mg/kg/injection, schedule: Q01DX009 (ip), vehicle: saline with Tween-80.
[7] abbreviates: dose: 12.5 mg/kg/injection, schedule: Q01DX009 (ip), vehicle: saline with Tween-80.
[8] abbreviates: dose: 12.5 mg/kg/injection, schedule: Q01DX009 (ip), vehicle: Klucel (hydroxypropylcellulose) (HPC).
The mark [9] stands for this setting: dose: 25.0 mg/kg/injection, schedule: Q01DX009 (ip), vehicle: Klucel (hydroxypropylcellulose) (HPC).
[10] abbreviates: dose: 50.0 mg/kg/injection, schedule: Q01DX009 (ip), vehicle: Klucel (hydroxypropylcellulose) (HPC).
[11] abbreviates: dose: 100.0 mg/kg/injection, schedule: Q01DX009 (ip), vehicle: Klucel (hydroxypropylcellulose) (HPC).
The mark [12] stands for this setting: dose: 200.0 mg/kg/injection, schedule: Q01DX009 (ip), vehicle: Klucel (hydroxypropylcellulose) (HPC).

Values joined by “and” are separate entries in the source; they are usually repeats but may differ in a detail not shown here. Equal entries are not always repeated. Toxic doses and inconclusive results are not listed. Residues, ends and D or L forms follow the SMILES beside them. *: point of attachment. Trt = c1ccc(C(c2ccccc2)(c2ccccc2)*)cc1; Cbz = O=C(OCc1ccccc1)*

Consider `O=C1c2c(O)ccc(O)c2C(=O)c2c(NCCNCCO)ccc(NCCNCCO)c21`, for which the T/C is, setting by setting: (dose: 0.12 mg/kg/injection, schedule: Q01DX009 (ip), vehicle: saline) 94 % of control; (dose: 0.12 mg/kg/injection, schedule: Q01DX009 (ip), vehicle: water) 104 % of control; (dose: 0.25 mg/kg/injection, schedule: Q01DX009 (ip), vehicle: saline) 101 % of control; (dose: 0.25 mg/kg/injection, schedule: Q01DX009 (ip), vehicle: water) 106 % of control; (dose: 0.5 mg/kg/injection, schedule: Q01DX009 (ip), vehicle: saline) 100 % of control; (dose: 0.5 mg/kg/injection, schedule: Q01DX009 (ip), vehicle: water) 110 % of control. The T/C by setting is: (dose: 1.0 mg/kg/injection, schedule: Q01DX009 (ip), vehicle: saline) 123 % of control; (dose: 1.0 mg/kg/injection, schedule: Q01DX009 (ip), vehicle: water) 120 % of control.

`COc1cc(C(=O)N/N=C/c2cccc([N+](=O)[O-])c2)cc(OC)c1OC`: the T/C under setting [1] is 97 % of control; the T/C under setting [2] was 98 % of control; the T/C under setting [3] was 105 % of control; the T/C under setting [4] is 93 % of control; the T/C under setting [5] was 101 % of control.

For `O=S(=O)(CCl)OCCCl`, the T/C reads like this: under setting [6], 103 % of control and 86 % of control; under setting [7], 100 % of control and 111 % of control; under setting [1], 99 % of control and 101 % of control and 109 % of control; under setting [2], 104 % of control and 114 % of control and 88 % of control; under setting [3], 118 % of control and 258 % of control.

Regarding `O=c1oc2c(O)c(O)cc3c(=O)oc4c(O)c(O)cc1c4c23`, the T/C runs as follows: under setting [8], 105 % of control; under setting [9], 105 % of control; under setting [10], 106 % of control; under setting [11], 110 % of control.

Regarding `COc1ccc(C[C@H](N)C(=O)NC2C(CO)OC(n3cnc4c(N(C)C)ncnc43)C2O)cc1` (stereo partly specified), the T/C was 99 % of control (dose: 5.0 mg/kg/injection, schedule: Q01DX009 (ip), vehicle: saline); 104 % of control (dose: 10.0 mg/kg/injection, schedule: Q01DX009 (ip), vehicle: saline); 114 % of control (dose: 20.0 mg/kg/injection, schedule: Q01DX009 (ip), vehicle: saline); 109 % of control (dose: 40.0 mg/kg/injection, schedule: Q01DX009 (ip), vehicle: saline); 114 % of control (dose: 80.0 mg/kg/injection, schedule: Q01DX009 (ip), vehicle: saline).

Take `CC(C#N)(C#N)N=Nc1ccc(Cl)cc1Cl`: the T/C by setting is: under setting [7], 98 % of control; under setting [1], 104 % of control; under setting [2], 109 % of control; under setting [3], 110 % of control; under setting [4], 106 % of control; under setting [5], 104 % of control.

For `COC(=O)C(CSC(c1ccccc1)(c1ccccc1)c1ccccc1)NC(=O)C(CC(N)=O)NC(=O)OCc1ccccc1` (stereo not drawn) (Cbz-Asn-Cys(Trt)-OMe; configuration not given here), the T/C (dose: 12.5 mg/kg/injection, schedule: Q01DX009 (ip), vehicle: distilled water + Tween-80) was 97 % of control; the T/C (dose: 25.0 mg/kg/injection, schedule: Q01DX009 (ip), vehicle: distilled water + Tween-80) was 103 % of control; the T/C (dose: 50.0 mg/kg/injection, schedule: Q01DX009 (ip), vehicle: distilled water + Tween-80) is 103 % of control; the T/C (dose: 100.0 mg/kg/injection, schedule: Q01DX009 (ip), vehicle: distilled water + Tween-80) is 98 % of control; the T/C (dose: 200.0 mg/kg/injection, schedule: Q01DX009 (ip), vehicle: distilled water + Tween-80) is 97 % of control; the T/C (dose: 400.0 mg/kg/injection, schedule: Q01DX009 (ip), vehicle: distilled water + Tween-80) is 98 % of control.

Consider `CN=S(=O)(OCCCCCOS(=O)(=NC)c1ccccc1)c1ccccc1` (stereo unspecified), for which the T/C was 101 % of control (dose: 3.12 mg/kg/injection, schedule: Q01DX009 (ip), vehicle: saline with Tween-80); 105 % of control under setting [6]; 118 % of control under setting [7]; 108 % of control under setting [1]; 122 % of control under setting [2].

`C=Cc1cnc([N+](=O)[O-])n1C`: the T/C under setting [8] is 94 % of control; the T/C under setting [9] is 90 % of control; the T/C under setting [10] is 99 % of control; the T/C under setting [11] is 92 % of control; the T/C under setting [12] is 92 % of control.

As for `C=CCCC(=O)CCCC(=O)O[C@@H]1[C@@H]2[C@H](CC1(C)C)[C@H](O)[C@@]13O[C@@H]1[C@H](O)[C@@]1(CO1)[C@@]23C`, the T/C is 113 % of control (dose: 3.12 micrograms/kg/injection, schedule: Q01DX009 (ip), vehicle: Klucel (hydroxypropylcellulose) (HPC)); 98 % of control (dose: 6.25 micrograms/kg/injection, schedule: Q01DX009 (ip), vehicle: Klucel (hydroxypropylcellulose) (HPC)); 97 % of control (dose: 12.5 micrograms/kg/injection, schedule: Q01DX009 (ip), vehicle: Klucel (hydroxypropylcellulose) (HPC)); 94 % of control (dose: 25.0 micrograms/kg/injection, schedule: Q01DX009 (ip), vehicle: Klucel (hydroxypropylcellulose) (HPC)); 110 % of control (dose: 50.0 micrograms/kg/injection, schedule: Q01DX009 (ip), vehicle: Klucel (hydroxypropylcellulose) (HPC)).

With `O=NN(CCCl)C(=O)NC1CCC(=O)NC1=O` (stereo unspecified), the T/C is 113 % of control (dose: 1.0 mg/kg/injection, schedule: Q01DX009 (ip), vehicle: saline with Tween-80); 225 % of control (dose: 4.0 mg/kg/injection, schedule: Q01DX009 (ip), vehicle: saline with Tween-80); 312 % of control (dose: 8.0 mg/kg/injection, schedule: Q01DX009 (ip), vehicle: saline with Tween-80); 93 % of control (dose: 16.0 mg/kg/injection, schedule: Q01DX009 (ip), vehicle: saline with Tween-80).

Regarding `O=C1N[C@H]2[C@H](CS[C@H]2CCCCC(=O)N(CCP(c2ccccc2)c2ccccc2)CCP(c2ccccc2)c2ccccc2)N1`, the T/C is 93 % of control and 114 % of control under setting [9]; 98 % of control and 88 % of control under setting [10]; 102 % of control under setting [11]; 92 % of control and 98 % of control under setting [12].

As for `CCN(CC)CCNc1ccc(C)c2sc3ccc(O)cc3c(=O)c12`, the T/C under setting [7] is 95 % of control, the T/C under setting [1] is 105 % of control and the T/C under setting [2] is 102 % of control.

As to `CCOC(=O)Nc1cc2c(c(N)n1)N=C(c1ccccc1)CN2`, the T/C was 105 % of control (dose: 1.25 mg/kg/injection, schedule: Q01DX009 (ip), vehicle: saline with Tween-80); 105 % of control (dose: 2.5 mg/kg/injection, schedule: Q01DX009 (ip), vehicle: saline with Tween-80); 100 % of control (dose: 5.0 mg/kg/injection, schedule: Q01DX009 (ip), vehicle: saline with Tween-80).

Regarding `COc1nc(C(Cl)(Cl)Cl)c(Cl)c(OC)c1Cl`, the T/C (dose: 25.0 mg/kg/injection, schedule: Q01DX008 (ip), vehicle: Klucel (hydroxypropylcellulose) (HPC)) was 120 % of control; the T/C (dose: 50.0 mg/kg/injection, schedule: Q01DX008 (ip), vehicle: Klucel (hydroxypropylcellulose) (HPC)) was 113 % of control; the T/C (dose: 100.0 mg/kg/injection, schedule: Q01DX008 (ip), vehicle: Klucel (hydroxypropylcellulose) (HPC)) is 113 % of control.

For `Nc1nc(N)c2cc(S(=O)(=O)c3ccccc3)ccc2n1`, the T/C is, setting by setting: under setting [1], 98 % of control; under setting [2], 98 % of control; under setting [3], 99 % of control.

On to `C#CCNC1=C(C)C(=O)C2=C(C1=O)[C@H](COC(N)=O)[C@]1(OC)[C@@H]3N[C@@H]3CN21`, for which the T/C (dose: 6.25 mg/kg/injection, schedule: Q01DX009 (ip), vehicle: distilled water + Tween-80) is 102 % of control.

Regarding `Cc1cn(C2CC(F)C(CO)O2)c(=O)[nH]c1=O` (stereo unspecified), the T/C runs as follows: (dose: 12.5 mg/kg/injection, schedule: Q01DX009 (ip), vehicle: suspension in saline) 106 % of control; (dose: 25.0 mg/kg/injection, schedule: Q01DX009 (ip), vehicle: suspension in saline) 103 % of control; (dose: 50.0 mg/kg/injection, schedule: Q01DX009 (ip), vehicle: suspension in saline) 106 % of control; (dose: 100.0 mg/kg/injection, schedule: Q01DX009 (ip), vehicle: suspension in saline) 100 % of control; (dose: 200.0 mg/kg/injection, schedule: Q01DX009 (ip), vehicle: suspension in saline) 121 % of control; (dose: 400.0 mg/kg/injection, schedule: Q01DX009 (ip), vehicle: suspension in saline) 122 % of control.
